Test results from the supplement of paper PMC10307832.

Legend:
Experiment in all cases: relative viability (nuclei count vs DMSO), 5 days (fraction); higher = more cells survive
[1] = compound: Cc1ccc(NC(=O)c2ccc(CN3CCN(C)CC3)cc2)cc1Nc1nccc(-c2cccnc2)n1 [Imatinib] + COc1cc2c(Oc3ccc(NC(=O)C4(C(=O)Nc5ccc(F)cc5)CC4)cc3F)ccnc2cc1OCCCN1CCOCC1 [Foretinib] (partner 0.25 µM)
In short: (§1)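 Relative viability divides the nuclei count in treated wells by that in vehicle wells. Lung cancer cell lines were seeded in 1536-well plates, dosed by pin tool the next day, and fixed and stained after 5 days in one step with final 0.05% Triton X-100, 1% formaldehyde and 1 ug/ml Hoechst. Dosing was a single drug or a fixed anchor-drug dose plus five library-drug doses (not always all listed) in √10 steps, and values are medians of duplicate plates imaged at 4×.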

[2] = compound: Cc1ccc(NC(=O)c2ccc(CN3CCN(C)CC3)cc2)cc1Nc1nccc(-c2cccnc2)n1 [Imatinib] + COc1cccc2cc(-c3nc([C@H]4CC[C@H](C(=O)O)CC4)n4ncnc(N)c34)[nH]c12 [OSI-027] (partner 0.5 µM)
In short: as §1

[3] = compound: Cc1ccc(NC(=O)c2ccc(CN3CCN(C)CC3)cc2)cc1Nc1nccc(-c2cccnc2)n1 [Imatinib] + C[C@]1(O)C[C@@H](c2nc(-c3ccc4ccc(-c5ccccc5)nc4c3)c3c(N)nccn32)C1 [Linsitinib] (partner 1 µM)
In short: as §1

[4] = compound: Cc1ccc(NC(=O)c2ccc(CN3CCN(C)CC3)cc2)cc1Nc1nccc(-c2cccnc2)n1 [Imatinib] + Cc1nc(NC(=O)N2CCC[C@H]2C(N)=O)sc1-c1ccnc(C(C)(C)C(F)(F)F)c1 [Alpelisib] (partner 2 µM)
In short: as §1

PC-14 was tested, and the relative viability ([1]; first compound 0.02 µM) was 0.934, the relative viability ([1]; first compound 0.06325 µM) was 0.84 and the relative viability ([1]; first compound 0.2 µM) was 1.08. The relative viability ([1]; first compound 0.6325 µM) was 0.934, the relative viability ([1]; first compound 2 µM) was 0.983 and the relative viability ([2]; first compound 0.02 µM) was 0.991. The relative viability ([2]; first compound 0.06325 µM) was 0.282, the relative viability ([2]; first compound 0.2 µM) was 0.856 and the relative viability ([2]; first compound 0.6325 µM) was 0.76. For the same cell line, the relative viability ([2]; first compound 2 µM) was 0.833, the relative viability ([3]; first compound 0.06325 µM) was 0.97 and the relative viability ([3]; first compound 0.2 µM) was 1.06. For the same cell line, the relative viability ([3]; first compound 0.6325 µM) was 0.984, the relative viability ([3]; first compound 2 µM) was 1.01 and the relative viability ([4]; first compound 0.02 µM) was 1.15. It also gave a relative viability ([4]; first compound 0.2 µM) of 1.13, a relative viability ([4]; first compound 0.6325 µM) of 0.926 and a relative viability ([4]; first compound 2 µM) of 0.854.
NCI-H596 showed a relative viability ([1]; first compound 0.02 µM) of 0.948, a relative viability ([1]; first compound 0.2 µM) of 0.931 and a relative viability ([1]; first compound 0.6325 µM) of 0.855. For the same cell line, the relative viability ([1]; first compound 2 µM) was 0.832, the relative viability ([2]; first compound 0.02 µM) was 0.775 and the relative viability ([2]; first compound 0.06325 µM) was 0.669. For the same cell line, the relative viability ([2]; first compound 0.2 µM) was 0.689, the relative viability ([2]; first compound 0.6325 µM) was 0.626 and the relative viability ([2]; first compound 2 µM) was 0.61. For the same cell line, the relative viability ([3]; first compound 0.02 µM) was 1.09, the relative viability ([3]; first compound 0.06325 µM) was 0.958 and the relative viability ([3]; first compound 0.2 µM) was 1.1. The relative viability ([3]; first compound 2 µM) was 0.969, the relative viability ([4]; first compound 0.02 µM) was 0.489 and the relative viability ([4]; first compound 0.06325 µM) was 0.459. It also gave a relative viability ([4]; first compound 0.2 µM) of 0.39, a relative viability ([4]; first compound 0.6325 µM) of 0.446 and a relative viability ([4]; first compound 2 µM) of 0.448.
NCI-H460 showed a relative viability ([1]; first compound 0.02 µM) of 1.12, a relative viability ([1]; first compound 0.06325 µM) of 0.918 and a relative viability ([1]; first compound 0.2 µM) of 1.15. It also gave a relative viability ([1]; first compound 0.6325 µM) of 0.909, a relative viability ([1]; first compound 2 µM) of 1.07 and a relative viability ([2]; first compound 0.02 µM) of 0.743. For the same cell line, the relative viability ([2]; first compound 0.06325 µM) was 1.09, the relative viability ([2]; first compound 0.2 µM) was 0.819 and the relative viability ([2]; first compound 0.6325 µM) was 0.566. It also gave a relative viability ([2]; first compound 2 µM) of 0.503, a relative viability ([3]; first compound 0.02 µM) of 1.11 and a relative viability ([3]; first compound 0.2 µM) of 0.964. It also gave a relative viability ([3]; first compound 0.6325 µM) of 0.801, a relative viability ([3]; first compound 2 µM) of 1.02 and a relative viability ([4]; first compound 0.02 µM) of 0.632. The relative viability ([4]; first compound 0.06325 µM) was 0.818, the relative viability ([4]; first compound 0.2 µM) was 0.667 and the relative viability ([4]; first compound 0.6325 µM) was 0.532. For the same cell line, the relative viability ([4]; first compound 2 µM) was 0.465.
CAL-12T showed a relative viability ([1]; first compound 0.02 µM) of 1.09, a relative viability ([1]; first compound 0.2 µM) of 1.1 and a relative viability ([1]; first compound 0.6325 µM) of 1.16. For the same cell line, the relative viability ([1]; first compound 2 µM) was 1.16, the relative viability ([2]; first compound 0.02 µM) was 0.714 and the relative viability ([2]; first compound 0.2 µM) was 0.605. For the same cell line, the relative viability ([2]; first compound 0.6325 µM) was 0.702, the relative viability ([2]; first compound 2 µM) was 0.471 and the relative viability ([3]; first compound 0.02 µM) was 0.908. The relative viability ([3]; first compound 0.06325 µM) was 0.877, the relative viability ([3]; first compound 0.2 µM) was 0.996 and the relative viability ([3]; first compound 0.6325 µM) was 0.982. It also gave a relative viability ([3]; first compound 2 µM) of 0.788, a relative viability ([4]; first compound 0.02 µM) of 1.47 and a relative viability ([4]; first compound 0.06325 µM) of 1.62. The relative viability ([4]; first compound 0.2 µM) was 1.42, the relative viability ([4]; first compound 0.6325 µM) was 1.17 and the relative viability ([4]; first compound 2 µM) was 1.14.
Work on NCI-H3122 yielded a relative viability ([1]; first compound 0.02 µM) of 0.879, a relative viability ([1]; first compound 0.06325 µM) of 1.12 and a relative viability ([1]; first compound 0.6325 µM) of 0.887. It also gave a relative viability ([1]; first compound 2 µM) of 0.984, a relative viability ([2]; first compound 0.02 µM) of 1.11 and a relative viability ([2]; first compound 0.06325 µM) of 0.831. It also gave a relative viability ([2]; first compound 0.2 µM) of 1.09, a relative viability ([2]; first compound 2 µM) of 1.1 and a relative viability ([3]; first compound 0.02 µM) of 1. It also gave a relative viability ([3]; first compound 0.06325 µM) of 1.13, a relative viability ([3]; first compound 0.2 µM) of 1.14 and a relative viability ([3]; first compound 0.6325 µM) of 1.03. It also gave a relative viability ([3]; first compound 2 µM) of 1.04, a relative viability ([4]; first compound 0.02 µM) of 0.763 and a relative viability ([4]; first compound 0.06325 µM) of 0.939. The relative viability ([4]; first compound 0.2 µM) was 0.894, the relative viability ([4]; first compound 0.6325 µM) was 0.865 and the relative viability ([4]; first compound 2 µM) was 0.837.
For A-427, the relative viability ([1]; first compound 0.02 µM) was 1.13, the relative viability ([1]; first compound 0.2 µM) was 1 and the relative viability ([1]; first compound 0.6325 µM) was 0.946. It also gave a relative viability ([1]; first compound 2 µM) of 1.01, a relative viability ([2]; first compound 0.02 µM) of 0.503 and a relative viability ([2]; first compound 0.2 µM) of 0.5. The relative viability ([2]; first compound 0.6325 µM) was 0.447, the relative viability ([2]; first compound 2 µM) was 0.47 and the relative viability ([3]; first compound 0.02 µM) was 1.11. It also gave a relative viability ([3]; first compound 0.2 µM) of 1.11, a relative viability ([3]; first compound 0.6325 µM) of 1.17 and a relative viability ([3]; first compound 2 µM) of 1.08. It also gave a relative viability ([4]; first compound 0.02 µM) of 1.11, a relative viability ([4]; first compound 0.6325 µM) of 1.1 and a relative viability ([4]; first compound 2 µM) of 1.06.
LU99A was tested, and the relative viability ([1]; first compound 0.02 µM) was 0.772, the relative viability ([1]; first compound 0.06325 µM) was 0.879 and the relative viability ([1]; first compound 0.2 µM) was 0.894. For the same cell line, the relative viability ([1]; first compound 0.6325 µM) was 0.857, the relative viability ([1]; first compound 2 µM) was 0.772 and the relative viability ([2]; first compound 0.02 µM) was 0.315. The relative viability ([2]; first compound 0.06325 µM) was 0.285, the relative viability ([2]; first compound 0.2 µM) was 0.301 and the relative viability ([2]; first compound 0.6325 µM) was 0.323. The relative viability ([2]; first compound 2 µM) was 0.28, the relative viability ([3]; first compound 0.02 µM) was 0.53 and the relative viability ([3]; first compound 0.06325 µM) was 0.543. The relative viability ([3]; first compound 0.2 µM) was 0.654, the relative viability ([3]; first compound 0.6325 µM) was 0.611 and the relative viability ([3]; first compound 2 µM) was 0.615. The relative viability ([4]; first compound 0.02 µM) was 0.575, the relative viability ([4]; first compound 0.06325 µM) was 0.604 and the relative viability ([4]; first compound 0.2 µM) was 0.599. It also gave a relative viability ([4]; first compound 0.6325 µM) of 0.523 and a relative viability ([4]; first compound 2 µM) of 0.514.
Cell Line NCI-H2087 has a relative viability ([1]; first compound 0.02 µM) of 1.2, a relative viability ([1]; first compound 0.6325 µM) of 1.05 and a relative viability ([1]; first compound 2 µM) of 0.976. It also gave a relative viability ([2]; first compound 0.02 µM) of 0.601, a relative viability ([2]; first compound 0.2 µM) of 0.643 and a relative viability ([2]; first compound 0.6325 µM) of 0.618. The relative viability ([2]; first compound 2 µM) was 0.572, the relative viability ([3]; first compound 0.02 µM) was 1.09 and the relative viability ([3]; first compound 0.06325 µM) was 1. It also gave a relative viability ([3]; first compound 0.2 µM) of 1.07, a relative viability ([3]; first compound 0.6325 µM) of 0.991 and a relative viability ([3]; first compound 2 µM) of 0.85. For the same cell line, the relative viability ([4]; first compound 0.02 µM) was 0.975, the relative viability ([4]; first compound 0.06325 µM) was 1.19 and the relative viability ([4]; first compound 0.2 µM) was 1.23. It also gave a relative viability ([4]; first compound 0.6325 µM) of 0.96 and a relative viability ([4]; first compound 2 µM) of 1.05.
